According to article PMC5570423, “Structural characterisation of TNRC6A nuclear localisation signal in complex with importin-alpha” (PLoS ONE, 2017):
Each block holds one substance with its values, some of them ahead of it. Where no end group is shown, it is not given here.

How the values were obtained:
[1] = test system: HeLa cells; conditions: region comprising residues 1178–1187 of the human protein; cited from earlier work
From the text: hTNRC6A cNLS (^1179[…]^1187; numbering according to isoform 1 and corresponds to ^926[…]^934 in isoform 2; Fig 1A) is located between the Ago-binding and UBA regions of the protein [35]. This motif is strictly conserved between mouse and humans (Fig 1B), is present in bats and hedgehogs, but appears to be absent in fish and insects.

[2] = test system: mImpα1ΔIBB; experiment: In vitro GST pull-down with mouse Impα1ΔIBB; type: binding; conditions: 100 μg GST-cNLS, 250 μg Impα, glutathione resin, 4°C 1 hr, 20 mM Tris pH7.5, […] NaCl, 1 mM DTT; SDS-PAGE
Description: (§1) Glutathione resin (Pierce) was incubated with 100 μg of purified GST-cNLS or GST, and 250 μg of ImpA or 500 μg of ImpB at 4°C for 1 hr. Unbound protein was removed by washing beads 5 times in 500 μL binding buffer, and the bound proteins were eluted in binding buffer supplemented with 10 mM glutathione. The samples were analysed using SDS-PAGE, input lanes correspond to 1% of incubated samples and pull-down lanes correspond to 8% of eluted protein.

[3] = test system: hImpα1ΔIBB; experiment: In vitro GST pull-down with human Impα1ΔIBB; type: binding; conditions: 100 μg GST-cNLS, 250 μg Impα, glutathione resin, 4°C 1 hr; SDS-PAGE
Description: as §1

[4] = test system: human Impβ; experiment: In vitro GST pull-down with human Impβ; type: binding; conditions: GST-NLS with His-tagged human Impβ (500 μg), 4°C 1 hr; S1 Fig
Description: as §1
(§2) Pull-downs with GST-NLS or GST-mImpα1 full-length with His-tagged mouse and human Impβ. GST and mImpα1 served as the negative and positive controls, respectively. (EPS) Click here for additional data file.

[5] = test system: mouse Impβ; experiment: In vitro GST pull-down with mouse Impβ; type: binding; conditions: GST-NLS with His-tagged mouse Impβ (500 μg), 4°C 1 hr; S1 Fig
Description: as §1, §2

[6] = test system: nuclear accumulation of a fluorescent reporter; conditions: template SSGA####AG, Lys/Arg combinations predicted to bind at P2-P5; cited from earlier work
Description: A detailed mutational analysis of a template monopartite NLS sequence has been reported, where all possible 16 Lys and/or Arg combinations (SSGA####AG, where # represents either Lys or Arg) predicted to bind at the P2-P5 pockets, were tested for their nuclear import activity.

Substance: SGKKRRRER [hTNRC6A cNLS, human TNRC6A cNLS, residues 1179–1187 of isoform 1; strictly conserved with mouse; tested earlier on a GFP reporter]
- nuclear localisation of a GFP reporter [1]: sufficient to induce the nuclear localisation

- binding to mImpα1ΔIBB in GST pull-down [2]: completely abolished binding
Substance: P2 mutant: GST-TNRC6A cNLS with mTNRC6A Lys1167 mutated to Ala (SGKARRRER; also: fused to GST (GST not in chain), ends not given here)

- binding to mImpα1ΔIBB in GST pull-down [2]: binding was disrupted
Substance: NLS mutant: GST-TNRC6A cNLS with the four arginine residues substituted to Ala, as previously described (SGKKAAAEA; also: fused to GST (GST not in chain), ends not given here)

Substance: SGKKRRRER [GST-TNRC6A cNLS, GST fusion of TNRC6A nuclear localisation signal, residues 1164–1172 of mouse TNRC6A (1179–1187 of human)]
- binding to hImpα1ΔIBB in GST pull-down [3]: sufficient to interact
- pull-down of human Impβ [4]: not sufficient to pull-down
- pull-down of mouse Impβ [5]: not sufficient to pull-down
- binding to mImpα1ΔIBB in GST pull-down [2]: sufficient to interact

Substance: SSGAKRRRAG
- nuclear accumulation of a fluorescent reporter [6]: Complete nuclear accumulation
